Tests used:
[1] = Determination of fluorescence lifetime (variable frequency phase fluorimeter); assay type: physicochemical
Protocol: The fluorescence lifetime of the DNP-fluorescein conjugates was measured on an ISS Greg-200 variable frequency phase fluorimeter as described previously (Lakowicz et al, Biophys. J., vol. 46, pp. 463-477 (1984) and Gratton et al, Biophys. J., vol. 46, pp. 479-486 (1984)) using 1-chloro-bis-(phenylethynyl)anthracene (Aldrich) in ethanol (3.791 ns) as a reference (Thompson et al. Anal. Chem., vol. 60, pp. 670-674 (1988)). The resulting phase and modulation data for DNP-Ins-FL were fit to one, two, and three emissive components using a Simplex algorithm supplied by ISS. […] When the data were fit to a three component model, the third component was weak (<5%), poorly defined (1.1±3.2 ns), and gave no improvement in X^2. Therefore, a third component appears to be unnecessary to fit the data. Since the DNP moiety has the ability to quench the fluorescein emission, the data are best explained by two fluorescein residues being remote from and unquenched by the DNP group with the third fluorescein residue being closer and subject to quenching. In accord with this explanation is the observation that the fluorescence of the DNP-lysine-fluorescein derivative was substantially quenched as shown by its reduced quantum efficiency and subanosecond fluorescence lifetime.

[2] = system: immobilized monoclonal anti-DNP antibody #51; experiment: Displacement of DNP-conjugates from immobilized monoclonal anti-DNP antibody by DNP-lysine; assay type: binding, murine; conditions: for Displacement of Antibody-Bound DNP-Conjugate by DNP-Lysine: ± S.D., free DNP-lysine to antibody-bound conjugate 2.0 (DNP-Lys-Fl) or 3.4 (DNP-Ins-Fl, DNP-Ins) mole/mole
Protocol: (§1) Specific binding of the DNP-conjugates was determined with the murine monoclonal anti-DNP antibody #51 (Stanley et al, J. Immunol. Methods, vol. 64, pp. 119-132 (1983) and Steward et al, J. Immunol. Methods, vol. 78, pp. 173-190 (1985)) coupled to tresyl chloride-activated Sepharose 4B (anti-DNP-Sepharose) The monoclonal IgG1 antibody #51 (purified from ascites) was kindly provided by Dr. M. W. Steward (Dept. of Medical Microbiology, London School of Hygiene and Tropical Medicine, London, U.K.). Nonspecific binding was measured with Sepharose 4B-immobilized non-immune mouse IgG purified from mouse serum (Jackson ImmunoResearch Laboratories, West Grove, PA) (IgG-Sepharose). After removal of buffer by vacuum filtration on a scintered glass funnel, 50 mg aliquots of Sepharose 4B-antibody matrices were transferred to plastic conical vials and incubated with ^125 I-labeled DNP-insulin A-chain-fluorescein conjugate (1.6×10^6 cpm/nmole), or ^125 I-labeled DNP-insulin A-chain conjugate without attached fluorescein residues (3.3×10^6 cpm/nmole), or non-radiolabeled DNP-Lys-Fl at a 3 to 1 molar ratio of DNP-derivative to immobilized IgG in 10 mM phosphate/150 mM NaCl, pH 7.6, overnight at 4° C. on a rocking platform. Unbound conjugate was recovered by poking a hole in the bottom of the plastic vial with a 30 gauge needle, loading the vial on the top of a glass test tube, and centrifuging. Subsequent washing steps were performed with 150 μl of 10 mM phosphate/150 mM NaCl/0.1% (v/v) Triton X-100, pH 7.6. Aliquots of the solutions collected in the bottom of the test tubes after centrifugation were assayed for radioactivity or fluorescence.
Aliquots of anti-DNP-Sepharose (50 mg) were incubated with ^125 I-labeled DNP-insulin A-chain, or ^125 I-labeled DNP-insulin A-chain-fluorescein, or DNP-lysine-fluorescein and washed with 10 mM phosphate/150 mM NaCl/0.1% (v/v) Triton X-100, pH 7.6 , as described above in Specific and Nonspecific Binding of DNP-Conjugates. […] Displacement was determined by assaying aliquots of the solutions collected in the bottom of the test tubes after centrifugation for radioactivity or fluorescence.

[3] = system: murine monoclonal anti-DNP antibody #51; experiment: Binding of DNP-conjugates to anti-DNP-Sepharose; conditions: for binding to anti-DNP-Sepharose after extensive washing (FIG. 3): 3:1 molar ratio of conjugate to immobilized antibody; for amount specifically bound to the antigen binding sites of immobilized antibody #51: after subtraction of non-specific binding to non-immune IgG-Sepharose; for DNP-Conjugate Bound / Ratio of Bound DNP-Conjugate to Immobilized IgG: binding to anti-DNP IgG1; for DNP-Conjugate Bound: applied conjugate to immobilized IgG 3.0 moles/moles, insulin conjugates 125I-labeled; for Ratio of Bound DNP-Conjugate to Immobilized IgG: applied ratio 3.0
Protocol: (§2) Fluorescence intensity was measured on a SLM 8000 fluorimeter at 490 nm excitation and 519 nm emission. Individual fluorescence standard curves with known concentrations of the different DNP-fluorescein conjugates were used to calculate the amounts of DNP-conjugates from fluorescence units. Antibodies were coupled to tresyl chloride-activated Sepharose 4B (Sigma) at a concentration of 200 ug antibody/100 mg gel according to the manufacturer's recommendation. The amount of immobilized antibody was determined using a Coomassie blue assay as described in Ahmad et al, Anal. Biochem., vol. 148, pp 533-541 (1985). Peptide and protein determinations in fluid-phase were performed by UV absorbance at 280 nm, by the bicinchoninic acid method (Smith et al, Anal. Biochem., vol. 150, pp. 76-85 (1985)) using the Pierce BCA Protein Assay Reagent (Pierce), and by the Folin-Ciocalteau method (Lowry et al, J. Biol. chem., vol. 193, pp. 265 (1951)). The A-chain of bovine insulin (oxidized to the S-sulfonate form) (Sigma), the DNP-Ins conjugate, and the DNP-Ins-Flu conjugate were radiolabeled with Na^125 I (Amersham, Arlington Heights, IL) using immobilized chloramine-T (Iodo-Beads; Pierce, Rockford, IL) (Petrella et al, J. Immunol. Methods, vol. 104, pp. 159-172 (1987)).
as §1

[4] = system: non-immune mouse IgG; experiment: Nonspecific binding of DNP-conjugates to IgG-Sepharose; conditions: for DNP-Conjugate Bound / Ratio of Bound DNP-Conjugate to Immobilized IgG: binding to non-immune IgG; for DNP-Conjugate Bound: applied conjugate to immobilized IgG 3.0 moles/moles; for Ratio of Bound DNP-Conjugate to Immobilized IgG: applied ratio 3.0
Protocol: as §2, §1

Row | Compound | fluorescence lifetime ([1]; in words) | Displacement of Antibody-Bound DNP-Conjugate by DNP-Lysine [2] | binding to anti-DNP-Sepharose after extensive washing (FIG. 3) [3] | fold difference in binding of DNP-Lys-Fl versus DNP-Ins-Fl to anti-DNP-Sepharose ([3]; 3:1 molar ratio, after extensive washing) | amount specifically bound to the antigen binding sites of immobilized antibody #51 [3] | DNP-Conjugate Bound [3] | Ratio of Bound DNP-Conjugate to Immobilized IgG [3] | non-specific binding of DNP-Lys-Fl to immobilized non-immune IgG relative to DNP-Ins-Fl [4] | DNP-Conjugate Bound [4] | Ratio of Bound DNP-Conjugate to Immobilized IgG [4] | fluorescence lifetime, shorter lifetime component ([1]; two component fit) | fraction of first lifetime component ([1]; two component fit) | fraction of shorter lifetime component ([1]; two component fit) | fluorescence lifetime, first component ([1]; two component fit, X^2 =1.26) | efficiency of displacement by DNP-lysine relative to DNP-Ins [2] | efficiency of displacement by DNP-lysine relative to DNP-Lys-Fl ([2]; under comparable conditions) | non-specific binding of DNP-Ins-Fl relative to DNP-Lys-Fl ([4]; see Table II)
1 | O=C(O)c1cc(NC(=S)N[C@@H](CCCCNc2ccc([N+](=O)[O-])cc2[N+](=O)[O-])C(=O)O)ccc1-c1c2ccc(=O)cc-2oc2cc(O)ccc12 [DNP-Lys-Fl, DNP-lysine-fluorescein, reference compound] | subanosecond | 0.45 ± 0.14 pmol | 62.7% | 1.6 fold | 0.4 mole conjugate/mole antibody | 0.37 ± 0.02 nmol | 1.9 moles/moles | three-fold higher | 1.27 ± 0.07 nmol | 1.5 moles/moles | – | – | – | – | – | – | –
2 | DNP-insulin A-chain-fluorescein [DNP-Ins-Fl] | – | 3.20 ± 0.70 pmol | 38.8% | – | 0.7 mole conjugate/mole antibody | 0.11 ± 0.03 nmol | 1.2 moles/moles | – | 0.44 ± 0.16 nmol | 0.5 moles/moles | 2.068±0.150 ns | 64±7% | 36% | 4.091±0.177 ns | two-fold more efficient | much more efficient | about one-third
3 | dinitrophenyl-insulin A-chain [DNP-Ins] | – | 1.56 ± 0.01 pmol | – | – | – | 0.11 ± 0.01 nmol | 1.2 moles/moles | – | – | – | – | – | – | – | – | – | –

— patent publication US5106762A, “Ligand-label conjugates which contain polyoxoanions of sulfur or phosphorus” (Georgetown University, priority 1990, dated 1992)
